# Experiments:
# [1] = test system: ABC-type DLBCL cell line TMD-8 cells; experiment: In vivo effect on subcutaneously transplanted TMD-8 tumor in mice (Test Example 1); parameters: species or system NOD-SCID mouse; conditions: for TGI (%): 29 days after tumor inoculation
# Experimental: ABC-type DLBCL cell line TMD-8 cells were suspended to 1×10^8 cells/mL using phosphate-buffered saline. 0.1 mL of the prepared cell suspension was subcutaneously transplanted to each NOD-SCID mouse (female, 6 weeks old). […] The major axis (mm) and minor axis (mm) of tumor were measured over time using an electronic digital caliper. […] Also, the body weights were measured over time using an automatic balance for small animals, and body weight change % was calculated according to calculation formula (5) shown below to study the influence of drug administration on the body weights. In addition, the results of the last body weight measurement were used in dose calculation. […] A: Average tumor volume of the compound-administered group on the date of assessment (*) B: Average tumor volume of the untreated control group on the date of assessment (*) *: The tumor volume was calculated according to ½×[Major axis of tumor]×[Minor axis of tumor]×[Minor axis of tumor].
# [2] = Body weight change of TMD-8 tumor-bearing mice (Test Example 1); type: in vivo, NOD-SCID mouse
# Experimental: ABC-type DLBCL cell line TMD-8 cells were suspended to 1×10^8 cells/mL using phosphate-buffered saline. 0.1 mL of the prepared cell suspension was subcutaneously transplanted to each NOD-SCID mouse (female, 6 weeks old). […] For a combined use group, 25 mg/kg or 50 mg/kg Compound A and 100 mg/kg or 200 mg/kg ibrutinib were orally administered sequentially by forced administration. […] The major axis (mm) and minor axis (mm) of tumor were measured over time using an electronic digital caliper. […] Also, the body weights were measured over time using an automatic balance for small animals, and body weight change % was calculated according to calculation formula (5) shown below to study the influence of drug administration on the body weights. In addition, the results of the last body weight measurement were used in dose calculation. […] *: The tumor volume was calculated according to ½×[Major axis of tumor]×[Minor axis of tumor]×[Minor axis of tumor]. […] BWn: Body weight on day n BWs: Body weight on the start day of administration
# [3] = Compound A 25 mg/kg oral, day 18 after tumor inoculation (first administration)
# [4] = Compound A 25 mg/kg oral, day 20 after tumor inoculation
# [5] = Compound A 25 mg/kg oral, day 22 after tumor inoculation
# [6] = Compound A 25 mg/kg oral, day 25 after tumor inoculation
# [7] = Compound A 25 mg/kg oral, day 27 after tumor inoculation
# [8] = Compound A 25 mg/kg oral, day 29 after tumor inoculation
# [9] = Compound A 50 mg/kg oral, day 18 after tumor inoculation (first administration)
# [10] = Compound A 50 mg/kg oral, day 20 after tumor inoculation
# [11] = Compound A 50 mg/kg oral, day 22 after tumor inoculation
# [12] = Compound A 50 mg/kg oral, day 25 after tumor inoculation
# [13] = Compound A 50 mg/kg oral, day 27 after tumor inoculation
# [14] = Compound A 50 mg/kg oral, day 29 after tumor inoculation
# [15] = Ibrutinib 100 mg/kg oral, day 18 after tumor inoculation (first administration)
# [16] = Ibrutinib 100 mg/kg oral, day 20 after tumor inoculation
# [17] = Ibrutinib 100 mg/kg oral, day 22 after tumor inoculation
# [18] = Ibrutinib 100 mg/kg oral, day 25 after tumor inoculation
# [19] = Ibrutinib 100 mg/kg oral, day 27 after tumor inoculation
# [20] = Ibrutinib 100 mg/kg oral, day 29 after tumor inoculation
# [21] = Ibrutinib 200 mg/kg oral, day 18 after tumor inoculation (first administration)
# [22] = Ibrutinib 200 mg/kg oral, day 20 after tumor inoculation
# [23] = Ibrutinib 200 mg/kg oral, day 22 after tumor inoculation
# [24] = Ibrutinib 200 mg/kg oral, day 25 after tumor inoculation
# [25] = Ibrutinib 200 mg/kg oral, day 27 after tumor inoculation
# [26] = Ibrutinib 200 mg/kg oral, day 29 after tumor inoculation
smiles,measurement,setting,value
"CC1(C)CCC2(CC1)N[C@@H](C(=O)N[C@@H]1CC[C@@H](C(N)=O)OC1)[C@H](c1ccnc(Cl)c1F)[C@]21C(=O)Nc2cc(Cl)ccc21.Cc1ccc(S(=O)(=O)O)cc1 [Compound A, (3′R,4′S,5′R)—N-[(3R,6S)-6-carbamoyltetrahydro-2H-pyran-3-yl]-6″-chloro-4′-(2-chloro-3-fluoropyridin-4-yl)-4,4-dimethyl-2″-oxo-1″,2″-dihydrodispiro[cyclohexane-1,2′-pyrrolidine-3′,3″-indole]-5′-carboxamide p-toluenesulfonate]",TGI (%),[1]; Compound A 25 mg/kg oral,45%
same,"Estimated tumor volume, average",[1]; [3],117 mm^3
same,"Estimated tumor volume, average",[1]; [4],135 mm^3
same,"Estimated tumor volume, average",[1]; [5],156 mm^3
same,"Estimated tumor volume, average",[1]; [6],201 mm^3
same,"Estimated tumor volume, average",[1]; [7],212 mm^3
same,"Estimated tumor volume, average",[1]; [8],282 mm^3
same,TGI (%),[1]; Compound A 50 mg/kg oral,58%
same,"Estimated tumor volume, average",[1]; [9],115 mm^3
same,"Estimated tumor volume, average",[1]; [10],118 mm^3
same,"Estimated tumor volume, average",[1]; [11],108 mm^3
same,"Estimated tumor volume, average",[1]; [12],143 mm^3
same,"Estimated tumor volume, average",[1]; [13],162 mm^3
same,"Estimated tumor volume, average",[1]; [14],216 mm^3
same,"Body weight change (%), average",[2]; [3],0.0%
same,"Body weight change (%), average",[2]; [4],2.1%
same,"Body weight change (%), average",[2]; [5],1.8%
same,"Body weight change (%), average",[2]; [6],1.6%
same,"Body weight change (%), average",[2]; [7],1.3%
same,"Body weight change (%), average",[2]; [8],0.1%
same,"Body weight change (%), average",[2]; [9],0.0%
same,"Body weight change (%), average",[2]; [10],−0.8%
same,"Body weight change (%), average",[2]; [11],−1.7%
same,"Body weight change (%), average",[2]; [12],−2.7%
same,"Body weight change (%), average",[2]; [13],−1.0%
same,"Body weight change (%), average",[2]; [14],−1.7%
"C=CC(=O)N1CCC[C@@H](n2nc(-c3ccc(Oc4ccccc4)cc3)c3c(N)ncnc32)C1 [Ibrutinib, (R)-1-(3-(4-amino-3-(4-phenoxyphenyl)-1H-pyrazolo[3,4-d]pyrimidin-1-yl)piperidin-1-yl)prop-2-en-1-one]",TGI (%),[1]; Ibrutinib 100 mg/kg oral,58%
same,"Estimated tumor volume, average",[1]; [15],115 mm^3
same,"Estimated tumor volume, average",[1]; [16],112 mm^3
same,"Estimated tumor volume, average",[1]; [17],127 mm^3
same,"Estimated tumor volume, average",[1]; [18],157 mm^3
same,"Estimated tumor volume, average",[1]; [19],185 mm^3
same,"Estimated tumor volume, average",[1]; [20],213 mm^3
same,TGI (%),[1]; Ibrutinib 200 mg/kg oral,67%
same,"Estimated tumor volume, average",[1]; [21],119 mm^3
same,"Estimated tumor volume, average",[1]; [22],120 mm^3
same,"Estimated tumor volume, average",[1]; [23],115 mm^3
same,"Estimated tumor volume, average",[1]; [24],149 mm^3
same,"Estimated tumor volume, average",[1]; [25],153 mm^3
same,"Estimated tumor volume, average",[1]; [26],166 mm^3
same,"Body weight change (%), average",[2]; [15],0.0%
same,"Body weight change (%), average",[2]; [16],−0.4%
same,"Body weight change (%), average",[2]; [17],−1.1%
same,"Body weight change (%), average",[2]; [18],−0.2%
same,"Body weight change (%), average",[2]; [19],0.8%
same,"Body weight change (%), average",[2]; [20],−0.1%
same,"Body weight change (%), average",[2]; [21],0.0%
same,"Body weight change (%), average",[2]; [22],−1.5%
same,"Body weight change (%), average",[2]; [23],−1.2%
same,"Body weight change (%), average",[2]; [24],0.2%
same,"Body weight change (%), average",[2]; [25],−0.4%
same,"Body weight change (%), average",[2]; [26],−1.6%

# From patent publication US10485794B2, “Treatment method by combined use of MDM2 inhibitor and BTK inhibitor” (DAIICHI SANKYO COMPANY, LIMITED, priority 2015, dated 2019)
